In ChEMBL document CHEMBL5385930, “Synthesis, Structure-Activity Relationship Study, Bioactivity, and Nephrotoxicity Evaluation of the Proposed Structure of the Cyclic Lipodepsipeptide Brevicidine B” (J Nat Prod, 2024):
Converted amounts (≈) assume the structure as drawn. Positions of bridges follow the written chain, without caps; N, C: chain ends. Non-standard residues stand in square brackets, D forms with d. Residues, ends and D or L forms follow the SMILES beside them. ξ: configuration not given here. *: point of attachment. Hexanoyl(4ξ-Me) = CCC(C)CCC(=O)*; dOrn = NCCC[C@@H](N)C(=O)O; Orn = NCCC[C@H](N)C(=O)O

Tests used:
Escherichia coli [1] = assay: Antibacterial activity against multidrug resistant Escherichia coli MS834 harbouring mcr-1 assessed as reduction in bacterial growth by microbroth dilution assay; type: functional
Klebsiella pneumoniae [2] = assay: Antibacterial activity against Klebsiella pneumoniae ATCC 700603 assessed as reduction in bacterial growth by microbroth dilution assay; type: functional
Klebsiella pneumoniae [3] = assay: Antibacterial activity against Klebsiella pneumoniae ATCC 33495 assessed as reduction in bacterial growth by microbroth dilution assay; type: functional
Klebsiella pneumoniae [4] = assay: Antibacterial activity against pandrug-resistant Klebsiella pneumoniae MS6671 assessed as reduction in bacterial growth by microbroth dilution assay; type: functional
Acinetobacter baumannii [5] = assay: Antibacterial activity against Acinetobacter baumannii ATCC 19606 assessed as reduction in bacterial growth by microbroth dilution assay; type: functional
Escherichia coli [6] = assay: Antibacterial activity against Escherichia coli ATCC 25922 assessed as reduction in bacterial growth by microbroth dilution assay; type: functional
Acinetobacter baumannii [7] = assay: Antibacterial activity against multidrug resistant Acinetobacter baumannii AB5075 assessed as reduction in bacterial growth by microbroth dilution assay; type: functional
Pseudomonas aeruginosa = assay: Antibacterial activity against Pseudomonas aeruginosa ATCC 27853 assessed as reduction in bacterial growth by microbroth dilution assay; type: functional
Staphylococcus aureus [8] = assay: Antibacterial activity against Staphylococcus aureus ATCC 25923 assessed as reduction in bacterial growth by microbroth dilution assay; type: functional
[9] = Nephrotoxicity in human Kidney organoid assessed as at 300 uM measured after 48 hrs by bright field imaging analysis; type: toxicity, tissue-based
[10] = Nephrotoxicity in human Kidney organoid assessed as at 100 uM measured after 48 hrs by bright field imaging analysis; type: toxicity, tissue-based
Enterococcus faecalis = assay: Antibacterial activity against vancomycin resistant Enterococcus faecalis V583 assessed as reduction in bacterial growth by microbroth dilution assay; type: functional
[11] = Nephrotoxicity in human Kidney organoid assessed as deterioration of renal tubule measured after 48 hrs by bright field imaging analysis; type: toxicity, tissue-based; conditions: dose 100-1000 µM
Staphylococcus aureus [12] = assay: Antibacterial activity against methicillin-resistant Staphylococcus aureus […] assessed as reduction in bacterial growth by microbroth dilution assay; type: functional
Staphylococcus aureus [13] = assay: Antibacterial activity against methicillin-resistant Staphylococcus aureus RA120 assessed as reduction in bacterial growth by microbroth dilution assay; type: functional
Staphylococcus aureus [14] = assay: Antibacterial activity against methicillin-resistant Staphylococcus aureus EMRSA-15 assessed as reduction in bacterial growth by microbroth dilution assay; type: functional
Staphylococcus aureus [15] = assay: Antibacterial activity against methicillin-resistant Staphylococcus aureus NCTC1044 assessed as reduction in bacterial growth by microbroth dilution assay; type: functional

Compound	MIC (Escherichia coli [1]) [µg/mL]	MIC (Klebsiella pneumoniae [2]) [µg/mL]	MIC (Klebsiella pneumoniae [3]) [µg/mL]	MIC (Klebsiella pneumoniae [4]) [µg/mL]	MIC (Acinetobacter baumannii [5]) [µg/mL]	MIC (Escherichia coli [6]) [µg/mL]	MIC (Acinetobacter baumannii [7]) [µg/mL]	MIC (Pseudomonas aeruginosa) [µg/mL]	MIC (Staphylococcus aureus [8]) [µg/mL]	Activity [9]	Activity [10]	MIC (Enterococcus faecalis) [µg/mL]	Activity [11]	MIC (Staphylococcus aureus [12]) [µg/mL]	MIC (Staphylococcus aureus [13]) [µg/mL]	MIC (Staphylococcus aureus [14]) [µg/mL]	MIC (Staphylococcus aureus [15]) [µg/mL]
C[C@@H](O)[C@H]1C(=O)N2C(C(=O)O)=C(S[C@@H]3CN[C@H](C(=O)N(C)C)C3)[C@H](C)[C@H]12 [MEROPENEM]	0.062 (≈ 0.162 µM)	0.062 (≈ 0.162 µM)	0.062 (≈ 0.162 µM)	32 (≈ 83.4 µM)	0.5 (≈ 1.3 µM)	0.031 (≈ 0.0808 µM)	32 (≈ 83.4 µM)	0.25 (≈ 0.652 µM)	–	–	–	–	–	–	–	–	–
CCC(C)CCC(=O)N[C@H](CC(N)=O)C(=O)N[C@H](Cc1ccc(O)cc1)C(=O)N[C@H](Cc1c[nH]c2ccccc12)C(=O)N[C@H](CCCN)C(=O)N[C@@H](CCCN)C(=O)NCC(=O)N[C@H](CCCN)C(=O)N[C@@H](Cc1c[nH]c2ccccc12)C(=O)N[C@@H]1C(=O)N[C@@H]([C@@H](C)CC)C(=O)NCC(=O)N[C@@H](CO)C(=O)O[C@@H]1C (some centres undefined) ({Hexanoyl(4ξ-Me)}-[dN][dY][dW][dOrn][Orn]G[dOrn]WTIGS; ester 9-C)	4 (≈ 2.63 µM)	8 (≈ 5.26 µM)	2 (≈ 1.32 µM)	16 (≈ 10.5 µM)	16 (≈ 10.5 µM)	4 (≈ 2.63 µM)	16 (≈ 10.5 µM)	4 (≈ 2.63 µM)	> 32	Toxic	Non-Toxic	> 32	Dose-Dependent Effect	> 32	–	–	–
CCC(C)CCC(=O)N[C@H](CC(N)=O)C(=O)N[C@@H](Cc1ccc(Br)cc1)C(=O)N[C@H](Cc1c[nH]c2ccccc12)C(=O)N[C@H](CCCN)C(=O)N[C@@H](CCCN)C(=O)NCC(=O)N[C@H](CCCN)C(=O)N[C@@H](Cc1c[nH]c2ccccc12)C(=O)N[C@@H]1C(=O)N[C@@H]([C@@H](C)CC)C(=O)NCC(=O)N[C@@H](CO)C(=O)O[C@@H]1C (some centres undefined)	> 32	> 32	> 32	> 32	> 32	32 (≈ 20.2 µM)	> 32	> 32	> 32	–	–	> 32	–	> 32	–	–	–
CCC(C)CCC(=O)N[C@H](CC(N)=O)C(=O)N[C@H](C(=O)N[C@H](Cc1c[nH]c2ccccc12)C(=O)N[C@H](CCCN)C(=O)N[C@@H](CCCN)C(=O)NCC(=O)N[C@H](CCCN)C(=O)N[C@@H](Cc1c[nH]c2ccccc12)C(=O)N[C@@H]1C(=O)N[C@@H]([C@@H](C)CC)C(=O)NCC(=O)N[C@@H](CO)C(=O)O[C@@H]1C)C(c1ccccc1)c1ccccc1 (some centres undefined)	16 (≈ 10.1 µM)	> 32	32 (≈ 20.3 µM)	> 32	32 (≈ 20.3 µM)	32 (≈ 20.3 µM)	32 (≈ 20.3 µM)	> 32	> 32	–	–	> 32	–	> 32	–	–	–
CCC(C)CCC(=O)N[C@H](CC(N)=O)C(=O)N[C@@H](Cc1ccccc1)C(=O)N[C@H](Cc1c[nH]c2ccccc12)C(=O)N[C@H](CCCN)C(=O)N[C@@H](CCCN)C(=O)NCC(=O)N[C@H](CCCN)C(=O)N[C@@H](Cc1c[nH]c2ccccc12)C(=O)N[C@@H]1C(=O)N[C@@H]([C@@H](C)CC)C(=O)NCC(=O)N[C@@H](CO)C(=O)O[C@@H]1C (some centres undefined)	> 32	> 32	> 32	> 32	> 32	> 32	> 32	> 32	> 32	–	–	> 32	–	> 32	–	–	–
CN[C@H](CC(C)C)C(=O)N[C@H]1C(=O)N[C@@H](CC(N)=O)C(=O)N[C@H]2C(=O)N[C@H]3C(=O)N[C@H](C(=O)N[C@H](C(=O)O)c4cc(O)cc(O)c4-c4cc3ccc4O)[C@H](O)c3ccc(c(Cl)c3)Oc3cc2cc(c3O[C@@H]2O[C@H](CO)[C@@H](O)[C@H](O)[C@H]2O[C@H]2C[C@](C)(N)[C@H](O)[C@H](C)O2)Oc2ccc(cc2Cl)[C@H]1O [VANCOMYCIN]	–	–	–	–	–	–	–	–	–	–	–	32 (≈ 22.1 µM)	–	–	–	–	–
CCC(C)CCC(=O)N[C@H](CC(N)=O)C(=O)N[C@H](Cc1c[nH]cn1)C(=O)N[C@H](Cc1c[nH]c2ccccc12)C(=O)N[C@H](CCCN)C(=O)N[C@@H](CCCN)C(=O)NCC(=O)N[C@H](CCCN)C(=O)N[C@@H](Cc1c[nH]c2ccccc12)C(=O)N[C@@H]1C(=O)N[C@@H]([C@@H](C)CC)C(=O)NCC(=O)N[C@@H](CO)C(=O)O[C@@H]1C (some centres undefined)	> 32	> 32	> 32	> 32	> 32	> 32	> 32	> 32	> 32	–	–	> 32	–	> 32	–	–	–
CC1(C)S[C@@H]2[C@H](NC(=O)[C@H](N)c3ccc(O)cc3)C(=O)N2[C@H]1C(=O)O [AMOXICILLIN]	–	–	–	–	–	–	–	–	0.25 (≈ 0.684 µM)	–	–	0.5 (≈ 1.37 µM)	–	> 32	> 32	> 32	32 (≈ 87.6 µM)
POLYMYXIN B [listing 1 of 2 here]	–	–	–	–	–	–	–	–	–	Toxic	–	–	Dose-Dependent Effect	–	–	–	–
CCC(C)CCC(=O)N[C@H](CC(N)=O)C(=O)N[C@H](Cc1ccccc1)C(=O)N[C@H](Cc1c[nH]c2ccccc12)C(=O)N[C@H](CCCN)C(=O)N[C@@H](CCCN)C(=O)NCC(=O)N[C@H](CCCN)C(=O)N[C@@H](Cc1c[nH]c2ccccc12)C(=O)N[C@@H]1C(=O)N[C@@H]([C@@H](C)CC)C(=O)NCC(=O)N[C@@H](CO)C(=O)O[C@@H]1C (some centres undefined)	8 (≈ 5.32 µM)	16 (≈ 10.6 µM)	4 (≈ 2.66 µM)	32 (≈ 21.3 µM)	16 (≈ 10.6 µM)	4 (≈ 2.66 µM)	16 (≈ 10.6 µM)	8 (≈ 5.32 µM)	> 32	Toxic	Non-Toxic	> 32	Dose-Dependent Effect	> 32	> 32	> 32	> 32
Cc1onc(-c2ccccc2)c1C(=O)N[C@@H]1C(=O)N2[C@@H]1SC(C)(C)[C@@H]2C(=O)O [OXACILLIN]	–	–	–	–	–	–	–	–	–	–	–	–	–	128 (≈ 319 µM)	64 (≈ 159 µM)	64 (≈ 159 µM)	64 (≈ 159 µM)
POLYMYXIN B [listing 2 of 2 here]	4	0.25	0.5	32	0.5	0.125	0.5	1	–	–	–	–	–	–	–	–	–
COLISTIN	4	0.25	0.25	32	0.5	0.125	1	1	–	–	–	–	–	–	–	–	–
CCC(C)CCC(=O)N[C@H](CC(N)=O)C(=O)N[C@H](CCCCN)C(=O)N[C@H](Cc1c[nH]c2ccccc12)C(=O)N[C@H](CCCN)C(=O)N[C@@H](CCCN)C(=O)NCC(=O)N[C@H](CCCN)C(=O)N[C@@H](Cc1c[nH]c2ccccc12)C(=O)N[C@@H]1C(=O)N[C@@H]([C@@H](C)CC)C(=O)NCC(=O)N[C@@H](CO)C(=O)O[C@@H]1C (some centres undefined)	> 32	> 32	> 32	> 32	> 32	> 32	> 32	16 (≈ 10.8 µM)	> 32	–	–	> 32	–	> 32	–	–	–
CCC(C)CCC(=O)N[C@H](CC(N)=O)C(=O)N[C@H](Cc1c[nH]c2ccccc12)C(=O)N[C@H](Cc1c[nH]c2ccccc12)C(=O)N[C@H](CCCN)C(=O)N[C@@H](CCCN)C(=O)NCC(=O)N[C@H](CCCN)C(=O)N[C@@H](Cc1c[nH]c2ccccc12)C(=O)N[C@@H]1C(=O)N[C@@H]([C@@H](C)CC)C(=O)NCC(=O)N[C@@H](CO)C(=O)O[C@@H]1C (some centres undefined) ({Hexanoyl(4ξ-Me)}-[dN][dW][dW][dOrn][Orn]G[dOrn]WTIGS; ester 9-C)	32 (≈ 20.7 µM)	32 (≈ 20.7 µM)	16 (≈ 10.4 µM)	> 32	> 32	32 (≈ 20.7 µM)	32 (≈ 20.7 µM)	32 (≈ 20.7 µM)	> 32	–	–	> 32	–	> 32	–	–	–
